What was measured:
α2-adrenergic receptor = type: binding, calf; conditions: for α1/α2 (ratio of Ki): Ki α1 / Ki α2, calf cerebral cortex; for Ki: [3H] clonidine binding site, calf cerebral cortex
α1-adrenergic receptor = α1-adrenergic receptor binding ([3H] prazosin binding site); conditions: calf cerebral cortex
Protocol: Extent of binding to the α1 -adrenergic receptor was determined by the method of Greengrass and Bremner, Eur. J. Pharmacol., 55, 323 (1979) and is expressed in Table II as Ki, representing the affinity of each compound for the [^3 H] prazosin binding site in calf cerebral cortex.

norepinephrine reuptake = conditions: cited from earlier work
[1] = system: α1- or α2-adrenergic receptors; conditions: cited from earlier work
[2] = system: locomotor depressant effects of methyldopa; conditions: rats; cited from earlier work
[3] = system: clonidine-induced sedation; conditions: man; cited from earlier work
[4] = system: sedation produced by clonidine; conditions: in vivo; cited from earlier work

SMILES | α1/α2 (ratio of Ki) (α2-adrenergic receptor) | Ki (α2-adrenergic receptor) | Ki (α1-adrenergic receptor) | further results
Cl.Cl.Ic1cccnc1N1CCNCC1 [Compound 1, 1-(3-Iodo-2-pyridinyl)piperazine Dihydrochloride] | 38 | 42 nM | 1600 nM | 
CN1CCN(c2ncccc2Br)CC1 [Compound 2] | 55 | 2.9 nM | 160 nM | 
FC(F)(F)c1cccnc1N1CCNCC1 [Compound 3] | 29 | 97 nM | 2850 nM | 
c1ccc(N2CCNCC2)nc1 [Compound 4] | 65 | 37 nM | 2400 nM | 
O=[N+]([O-])c1cccnc1N1CCNCC1 [Compound 5, 1-(3-Nitro-2-pyridinyl)piperazine] | 146 | 26 nM | 3800 nM | 
CN1CCN(c2ncccc2F)CC1 [Compound 6] | 98 | 5 nM | 490 nM | 
CN1CCN(c2ncccc2Cl)CC1 [Compound 7] |  | 2.7 nM | 215 nM | 
CN1CCN2c3ccccc3Cc3ccccc3C2C1 (centres unmarked) [Mianserin] |  |  |  | in vivo norepinephrine reuptake inhibiting properties (norepinephrine reuptake): minimal; blockade of α2-adrenergic receptors [1]: blocks α2 -adrenergic receptors; selectivity for α1- or α2-adrenergic receptors ([1]; in vivo blockade suggested at about the same dose): fails to exhibit any important selectivity
COC(=O)[C@@H]1[C@H]2C[C@H]3c4[nH]c5ccccc5c4CCN3C[C@@H]2CC[C@@H]1O [yohimbine] |  |  |  | effect on locomotor depressant effects of methyldopa [2]: antagonizes; effect on clonidine-induced sedation [3]: reduce clonidine-induced sedation in man; effect on sedation produced by clonidine [4]: antagonizes the sedation produced by clonidine

From patent publication US4442103A, “Treating sedation with 1-(3-substituted-2-pyridinyl) piperazines” (Merck & Co., Inc., priority 1982, dated 1984)
